# Assay results published in PubChem BioAssay AID330 (DTP/NCI, 2004).
# Values joined by “and” are separate entries in the source; they are usually repeats but may differ in a detail not shown here. Equal entries are not always repeated. Toxic doses and inconclusive results are not listed.
# Tested on: P388 leukemia ip, CD2F1 mice, survival T/C
# Assay: NCI In Vivo Anticancer Drug Screen. Data for tumor model P388 Leukemia (intraperitoneal) in CD2F1 (CDF1) mice
# Details: endpoint: median survival time, higher = longer survival
# How it was run: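 Mice carrying the transplanted tumor received test compound or vehicle. Survival was recorded in each group, and the value is the treated-group measurement divided by that of the vehicle-treated control group.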
# [1] = dose: 6.25 mg/kg/injection, schedule: Q01DX005 (ip), vehicle: saline
# [2] = dose: 25.0 mg/kg/injection, schedule: Q01DX005 (ip), vehicle: saline
# [3] = dose: 50.0 mg/kg/injection, schedule: Q01DX005 (ip), vehicle: saline
# [4] = dose: 50.0 mg/kg/injection, schedule: Q01DX009 (ip), vehicle: saline with Tween-80
# [5] = dose: 100.0 mg/kg/injection, schedule: Q01DX009 (ip), vehicle: saline with Tween-80
structure (smiles),measurement,setting,value
CCN(CC)CCCCCCNc1cc(OC)c(Cl)c2cccnc12,T/C,[1],102 % of control
same,T/C,"dose: 12.5 mg/kg/injection, schedule: Q01DX005 (ip), vehicle: saline",95 % of control
same,T/C,[2],98 % of control
same,T/C,[3],115 % of control
CCn1c2ccccc2c2cc(NC(=O)Nc3ccc4c(c3)c3ccccc3n4CC)ccc21,T/C,"dose: 50.0 mg/kg/injection, schedule: Q01DX005 (ip), vehicle: saline with Tween-80",90 % of control
same,T/C,"dose: 100.0 mg/kg/injection, schedule: Q01DX005 (ip), vehicle: saline with Tween-80",97 % of control
same,T/C,"dose: 200.0 mg/kg/injection, schedule: Q01DX005 (ip), vehicle: saline with Tween-80",109 % of control
N=C(N)c1ccc(/C=C/c2ccc(C(=N)N)cc2)cc1,T/C,"dose: 8.0 mg/kg/injection, schedule: Q01DX009 (ip), vehicle: saline with Tween-80",119 % of control
same,T/C,"dose: 16.0 mg/kg/injection, schedule: Q01DX009 (ip), vehicle: saline with Tween-80",122 % of control and 124 % of control
same,T/C,"dose: 32.0 mg/kg/injection, schedule: Q01DX009 (ip), vehicle: saline with Tween-80",124 % of control
same,T/C,"dose: 64.0 mg/kg/injection, schedule: Q01DX009 (ip), vehicle: Klucel (hydroxypropylcellulose) (HPC)",177 % of control
Cc1cc(=O)oc2c1ccc1c(O)cccc12,T/C,"dose: 60.0 mg/kg/injection, schedule: Q01DX005 (ip), vehicle: saline with Tween-80",106 % of control
same,T/C,"dose: 120.0 mg/kg/injection, schedule: Q01DX005 (ip), vehicle: saline with Tween-80",100 % of control
O=C(O)c1cc(C(=O)O)c(C(=O)O)cc1C(=O)O.[NH2-].[NH2-].[NH2-].[NH2-].[Pt+2].[Pt+2],T/C,"dose: 0.78 mg/kg/injection, schedule: Q01DX005 (ip), vehicle: water",106 % of control
same,T/C,"dose: 1.56 mg/kg/injection, schedule: Q01DX005 (ip), vehicle: suspension in saline",108 % of control
same,T/C,"dose: 1.56 mg/kg/injection, schedule: Q01DX005 (ip), vehicle: water",115 % of control
same,T/C,"dose: 3.12 mg/kg/injection, schedule: Q01DX005 (ip), vehicle: saline",113 % of control
same,T/C,"dose: 3.13 mg/kg/injection, schedule: Q01DX005 (ip), vehicle: water",119 % of control
same,T/C,[1],105 % of control
same,T/C,"dose: 6.25 mg/kg/injection, schedule: Q01DX005 (ip), vehicle: suspension in saline",118 % of control
same,T/C,"dose: 9.0 mg/kg/injection, schedule: Q01DX005 (ip), vehicle: suspension in saline",110 % of control
same,T/C,"dose: 12.5 mg/kg/injection, schedule: Q01DX005 (ip), vehicle: suspension in saline",161 % of control
same,T/C,"dose: 12.5 mg/kg/injection, schedule: Q01DX005 (ip), vehicle: water",166 % of control
same,T/C,[2],153 % of control
same,T/C,"dose: 25.0 mg/kg/injection, schedule: Q01DX005 (ip), vehicle: suspension in saline",174 % of control and 176 % of control
same,T/C,"dose: 41.67 mg/kg/injection, schedule: Q01DX005 (ip), vehicle: suspension in saline",150 % of control
same,T/C,[3],186 % of control
CC1(C)OC2C(COC(=O)c3ccc([N+](=O)[O-])cc3)OC(NC(=O)N(CCCl)N=O)C2O1 (configuration not stated),T/C,"dose: 0.09 mg/kg/injection, schedule: Q01DX009 (ip), vehicle: saline with Tween-80",119 % of control
same,T/C,"dose: 0.19 mg/kg/injection, schedule: Q01DX009 (ip), vehicle: saline with Tween-80",119 % of control
same,T/C,"dose: 0.39 mg/kg/injection, schedule: Q01DX009 (ip), vehicle: saline with Tween-80",119 % of control
same,T/C,"dose: 1.56 mg/kg/injection, schedule: Q01DX009 (ip), vehicle: saline with Tween-80",153 % of control
same,T/C,"dose: 3.12 mg/kg/injection, schedule: Q01DX009 (ip), vehicle: saline with Tween-80",174 % of control
same,T/C,"dose: 12.5 mg/kg/injection, schedule: Q01DX009 (ip), vehicle: saline with Tween-80",202 % of control
same,T/C,"dose: 25.0 mg/kg/injection, schedule: Q01DX009 (ip), vehicle: saline with Tween-80",272 % of control
same,T/C,[4],282 % of control
same,T/C,[5],154 % of control
same,T/C,"dose: 200.0 mg/kg/injection, schedule: Q01DX009 (ip), vehicle: saline with Tween-80",109 % of control
O=S(=O)(c1ccccc1)N1OC1c1ccccc1 (configuration not stated),T/C,[4],100 % of control
same,T/C,"dose: 60.0 mg/kg/injection, schedule: Q01DX005 (ip), vehicle: Klucel (hydroxypropylcellulose) (HPC)",104 % of control
same,T/C,[5],86 % of control
same,T/C,"dose: 120.0 mg/kg/injection, schedule: Q01DX005 (ip), vehicle: Klucel (hydroxypropylcellulose) (HPC)",104 % of control
same,T/C,"dose: 240.0 mg/kg/injection, schedule: Q01DX005 (ip), vehicle: Klucel (hydroxypropylcellulose) (HPC)",99 % of control
